From ChEMBL document CHEMBL1201862, “PubChem BioAssay data set” (2004)
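Dose response: 5 concentrations. Exposure: 48 h. Format: 96-well plates. Endpoint: linear interpolation; highest concentration if not reached. GI50: concentration for 50% inhibition of growth.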 Activity calls are given as the source filed them. Rule as the data show it: active = GI50 up to about 1.1 µM and inactive = higher.

Key:
Assay in all cases: inhibition of tumour cell growth, NCI panel, 48 h
XF498 = tested on: XF498
DMS-273 = tested on: DMS-273
LXFL 529 = tested on: LXFL 529
HOP-18 = tested on: HOP-18
DMS-114 = tested on: DMS-114
KM-20L2 = tested on: KM-20L2
DLD-1 = tested on: DLD-1
Hs-578T = tested on: Hs-578T
RXF 631 = tested on: RXF 631

Structure (SMILES) | GI50 (LXFL 529) | GI50 (DMS-114) | GI50 (KM-20L2) | GI50 (DLD-1) | GI50 (Hs-578T) | also measured
NC(=S)NNC(=O)/C(=C/c1ccc(/C=C(\NC(=O)c2ccccc2)C(=O)NNC(N)=S)cc1)NC(=O)c1ccccc1 | 80 µM (inactive) | > 71.8 µM (inactive) | > 100 µM (inactive) | > 63.7 µM (inactive) |  | GI50 (XF498): 70 µM (inactive); GI50 (DMS-273): > 100 µM (inactive); GI50 (HOP-18): > 100 µM (inactive)
Cc1c2ccccc2c(C2C3C(=O)N(c4cccc5ccccc45)C(=O)C3ON2Cc2ccc(CC(N)=O)cc2)c2ccccc12 (centres undefined) |  |  |  |  | 27.6 µM (inactive) | 
Clc1cc(Cc2cc(Cl)c(Cl)c3c2OCOC3)c2c(c1Cl)COCO2 | 37.7 µM (inactive) | 45.5 µM (inactive) | > 100 µM (inactive) | > 100 µM (inactive) |  | GI50 (DMS-273): 38.7 µM (inactive); GI50 (HOP-18): 23.8 µM (inactive)
c1ccc2c(c1)N=c1ccccc1=P21c2ccccc2Nc2ccccc21 |  |  |  |  | 0.382 µM (active) | 
N#C/C(c1nc2ccccc2[nH]1)=c1\s/c(=C/c2ccccc2)c(=O)n1-c1ccccc1 | 96.2 µM (inactive) | > 100 µM (inactive) | > 100 µM (inactive) | > 100 µM (inactive) |  | GI50 (XF498): 60.8 µM (inactive); GI50 (DMS-273): > 100 µM (inactive)
O=C1N[C@H]2c3c(Cl)sc(Cl)c3C(=O)[C@H]2O1 |  |  |  |  | 17.9 µM (inactive) | 
C=C1CC2(OC1=O)c1ccccc1CCc1ccccc12 | 1.7 µM (inactive) | 1.85 µM (inactive) | 4.06 µM (inactive) | 1.83 µM (inactive) | 1.94 µM (inactive) | GI50 (XF498): 2.41 µM (inactive); GI50 (DMS-273): 3.49 µM (inactive); GI50 (HOP-18): 1.97 µM (inactive)
CC[C@H](C)c1occ2c(O)c(C(=O)O)c(=O)cc-2c1C |  |  |  |  | 48.5 µM (inactive) | 
O=C(Nc1nc2ccccc2n1Cc1ccc(Cl)cc1)NC12CC3CC(CC(C3)C1)C2 | 20.3 µM (inactive) | 24.3 µM (inactive) | 64.7 µM (inactive) | 36.2 µM (inactive) |  | GI50 (XF498): 13.4 µM (inactive); GI50 (DMS-273): 13.8 µM (inactive); GI50 (HOP-18): 27.6 µM (inactive)
CCOC(=O)c1ccc(-c2ccc(Cl)cc2)[nH]1 |  |  |  |  | > 10 µM (inactive) | 
O=C(O)[C@@H]1C[C@@H](O)CN1 |  |  |  |  | > 100 µM (inactive) | 
O=C(Nc1ccccc1)c1cc(S(=O)(=O)N2CCNC2=O)c(S)cc1Cl |  |  |  |  | > 100 µM (inactive) | 
O=C(CSc1nnc(Cc2ccccc2)o1)Nc1ccccc1Cl | > 100 µM (inactive) | > 100 µM (inactive) | > 100 µM (inactive) | > 100 µM (inactive) |  | GI50 (DMS-273): > 100 µM (inactive); GI50 (HOP-18): > 100 µM (inactive)
Cc1ccccc1S(=O)(=O)Nn1cnc2ccc(S(=O)(=O)Nc3ccc(Cl)cc3)cc2c1=O |  |  |  |  | 28.8 µM (inactive) | 
C[C@]12CC[C@H]3[C@@H](CC=C4C[C@@H](N5CCCC5)CC[C@@]43C)[C@@H]1C[C@H](N1CCCCC1)[C@@H]2O |  |  |  |  | > 100 µM (inactive) | 
COc1cc(/C=C2\N=C(c3ccccc3)N(c3ccc4c(c3)Sc3cc(N5C(=O)/C(=C/c6cc(OC)c(OC)c(OC)c6)N=C5c5ccccc5)ccc3N4)C2=O)cc(OC)c1OC |  |  |  |  | 21.8 µM (inactive) | 

Structure (SMILES) | GI50 (LXFL 529) | GI50 (DMS-114) | GI50 (KM-20L2) | GI50 (DLD-1) | GI50 (Hs-578T) | also measured
CCN(CC)c1ccc(NC(=S)NN(C)C)cc1 |  |  |  |  | > 10 µM (inactive) | 
C=CC[C@]12C=C(OC)[C@@H](O)[C@](OC)(C(c3cc(OC)c4c(c3)OCO4)[C@H]1C)[C@H]2OC(C)=O (some centres undefined) |  |  |  |  | 22.6 µM (inactive) | 
C=CCNC1=C2C[C@@H](C)C[C@@H](OC)[C@H](OC(=O)CN)[C@H](C)/C=C(\C)[C@@H](OC(N)=O)[C@H](OC)/C=C\C=C(/C)C(=O)NC(=CC1=O)C2=O |  |  |  |  | 7.73 µM (inactive) | 
Cc1nc(=O)[nH]c(NCCNCCO)c1C(=O)Nc1cccc2cc3ccccc3cc12 |  |  |  |  | > 100 µM (inactive) | 
Cc1cc(O)c2c(c1)OC1(C)CCC3C(C)(C)CCCC34COC2C14 (centres undefined) | 15 µM (inactive) | 13.9 µM (inactive) | 16.6 µM (inactive) | 20.4 µM (inactive) |  | GI50 (DMS-273): 14 µM (inactive)
CCOC(=O)c1nc2ccccc2nc1NCc1ccc(OC)cc1 |  |  |  |  | 40.5 µM (inactive) | 
C=C(C)C1Cc2cc(C(C)=O)ccc2O1 (centres undefined) |  |  |  |  | > 100 µM (inactive) | 
CC1=C(C)C(=O)C2=C(OCCCO2)C1=O | 18 µM (inactive) | 18.4 µM (inactive) | 34.2 µM (inactive) | > 10 µM (inactive) |  | GI50 (RXF 631): 17.7 µM (inactive)
C=CCOc1cc2c(cc1C(C)c1ccc(OC)cc1)OCO2 (centres undefined) | 0.718 µM (active) | 0.289 µM (active) | 0.348 µM (active) | 0.533 µM (active) |  | GI50 (XF498): 0.287 µM (active); GI50 (DMS-273): 0.421 µM (active)
CCC1OC(=O)CC(O)C(C)C(OC2OC(C)CC(N(C)C)C2O)C(CC=O)CC(C)C(=O)/C=C/C2(C)OC2C1C (centres undefined) |  |  |  |  | 32.4 µM (inactive) | 
CCOC(=O)c1nc2cc(C(F)(F)F)ccc2nc1Oc1ccc(C(=O)OC)cc1 |  |  |  |  | > 100 µM (inactive) | 
COc1ccc2c(c1OC)C[C@@H]1c3c(cc4c(c3-2)OCO4)CCN1C |  |  |  |  | 34.4 µM (inactive) | 
COC(=O)C(CC(=O)Nc1ccc(C)cc1)C(=O)C(=O)Nc1ccccc1C(C)C (centres undefined) | > 100 µM (inactive) | > 100 µM (inactive) | > 100 µM (inactive) | > 100 µM (inactive) |  | GI50 (XF498): > 100 µM (inactive); GI50 (DMS-273): > 100 µM (inactive); GI50 (HOP-18): > 100 µM (inactive)
O=C(O)CCCc1ccc2c(c1)CC1(C2)Cc2cc3c(cc2C1)CCCC3 |  |  |  |  | > 100 µM (inactive) | 
COc1cccc(-c2cc(=O)c3ccc(C)nc3[nH]2)c1 |  |  |  |  | 0.0687 µM (active) | 
